Measured values from US20130150317A1, “COMPOUNDS FOR THE TREATMENT OF RENAL CELL CARCINOMA” (Myrovlytis Technology Ventures Limited, priority 2010, published 2013).
Entries after “also recorded” stand apart in the source; their conditions may differ. Structures can show the parent of a compound that is named as a salt. Where two headings read alike, the source gives them in different places.

Assays:
UOK257-FLCN^− cells = test: SRB growth inhibition assay in UOK257-FLCN^− cells; assay type: cell-based, human; details: for GI50: SRB assay, 72 hours continuous exposure, mean ± SE (n), read-out: GI50 nM in UOK-FLCN^−; for GI50 Ratio of UOK-FLCN^+/UOK-FLCN^−: ratio>1 = more inhibitory to FLCN^− cells; for fold difference in the GI50 values between FLCN-null and FLCN-wild type UOK257 cells: GI50 higher in FLCN-wild type cells (FLCN-null more sensitive)
Source text: (§1) Human renal carcinoma of BHD origin cells UOK-257 (UOK-FLCN^−) and FLCN transfected UOK-257 cells UOK-FLCN^+ (Yang et al Cancer Genet Cytogenet. 2008 Jan. 15; 180(2):100-9) were provided by Dr Marston Linehan and Dr. Laura S Schmidt (Urologic Oncology Branch, Centre for Cancer Research, National Cancer Institute, National Institutes of Health, Bethesda, Md. 20892, USA). UOK-257 is the only RCC cell line that has been derived from a patient with BHD and harbours a germline FLCN frameshift mutation (c.1285dupC) (predicted, in the absence of nonsense mediated mRNA decay, to lead to premature protein truncation (p.His429ProfsX27) (Yang et al., Cancer Genet Cytogenet, 2008 Jan. 15; 180(2):100-9). We are not aware of any sporadic RCC cell lines with homozygous FLCN inactivation. FTC-133 cells were purchased from ECACC (Salisbury, United Kingdom). These cells are a non-RCC cell line derived from human thyroid carcinoma. 786-0 cells were available from the author's lab (Clifford et al., Hum Mol Genet. 2001 May 1; 10(10):1029-38). 786-O is a kidney cancer cell line that harbours an inactivating VHL gene mutation (c.311delG p.G104fs*55). All cell lines were cultured in DMEM with supplement of 10% foetal bovine serum except for FTC-133 cells which were incubated in medium with DMEM and Hens (1:1).
(§2) The sensitivity of the cell lines to drug-induced cell growth inhibition was determined using the sulphorhodamine B assay (SRB) as described by Lu et al., Clin Cancer Res. 2001:7:2114-23. Briefly, adherent exponentially growing cells were seeded into 96-well plates at 3-5×10^3 cells/100 μl/well. […] The absorbance per well was measured at 570 nm on a Victor X3 Multilabel Plate Reader (PerkinElmor, Beaconsfield, United Kingdom).
GI50 values, defined as the concentration of compounds required to inhibit growth by 50%, were then calculated. The ratio of GI50 value from UOK257-FLCN^+ and UOK257-FLCN^− were calculated and used as an indicator for the sensitivity to FLCN mutant cells.

UOK257-FLCN^+ cells = test: SRB growth inhibition assay in UOK257-FLCN^+ cells; assay type: cell-based, human; details: 72 hours continuous exposure, mean ± SE (n), read-out: GI50 nM in UOK-FLCN^+
Source text: as §1
as §2, with “μl/well. After 20-24 h at 37° C., drugs were added at the appropriate drug concentrations to the wells (final DMSO conc. 1%) as indicated in the Results section.” for “μl/well.”
UOK-257 is the only RCC cell line that has been derived from a patient with BHD and harbours a germline FLCN frameshift mutation (c.1285dupC) (predicted, in the absence of nonsense mediated mRNA decay, to lead to premature protein truncation (p.His429ProfsX27) (Yang et al Cancer Genet Cytogenet, 2008 Jan. 15; 180(2):100-9). Both UOK257-FLCN^− and UOK257-FLCN^+ cells were examined for their sensitivities to growth inhibition induced by 15 compounds selected from the COMPARE analysis. Various concentrations of compounds were introduced into the cells 24 hrs after seeding, incubation was continued for 72 hours and growth inhibition was assessed using the suiphorhodamine B (SRB) assay. GI50 values, defined as the concentration of compounds required to inhibit growth by 50%, were then calculated. The ratio of GI50 value from UOK257-FLCN^+ and UOK257-FLCN^− were calculated and used as an indicator for the sensitivity to FLCN mutant cells.

[1] = test system: 786-O cells with mutant VHL; test: SRB growth inhibition in 786-O cells with mutant VHL; assay type: cell-based, human; details: SRB assay, 72 hours
Source text: as §1
as §2, with “μl/well. After 20-24 h at 37° C., drugs were added at the appropriate drug concentrations to the wells (final DMSO conc. 1%) as indicated in the Results section.” for “μl/well.”
Cells were exposed continuously to various concentrations of drugs for 72 hours. GI50 values were determined as the concentrations at 50% growth inhibition from at least three experiments.

[2] = test system: FTC-133 cells transfected with empty vector; test: SRB growth inhibition in FTC-133 cells, empty vector; assay type: cell-based, human; details: SRB assay
Source text: as §1, §2
(§3) A FLCN containing construct was introduced into parental FTC-133 cells and stably transfected cells were selected. SRB growth inhibition assay was carried out in cells transfected with empty vector and low FLCN and high FLCN expression.
as §3

[3] = test system: VHL-deficient cells in ccRCC cell lines; details: Sutphin et al., Cancer Res 2007, cited from earlier work

SMILES	GI50 Ratio of UOK-FLCN^+/UOK-FLCN^− (UOK257-FLCN^− cells)	GI50 (UOK257-FLCN^− cells; Homo sapiens) [nM]	GI50 (UOK257-FLCN^+ cells; Homo sapiens) [nM]	other results
CC[C@H](C)[C@H]1NC(=O)[C@@H](NC(=O)[C@@H](CC(C)C)N(C)C(=O)[C@@H]2CCCN2C(=O)C(C)O)[C@@H](C)OC(=O)[C@H](Cc2ccc(OC)cc2)N(C)C(=O)[C@@H]2CCCN2C(=O)[C@H](CC(C)C)NC(=O)[C@@H](C)C(=O)[C@H](C(C)C)OC(=O)C[C@@H]1O (stereo partly shown) [didemnin B]	0.82			GI50 (UOK257-FLCN^− cells): 7.94 ± 1.66 nM; GI50 (UOK257-FLCN^+ cells): 6.53 ± 1.78 nM
CC[C@]1(O)C[C@H]2CN(CCc3c([nH]c4ccccc34)[C@@](C(=O)OC)(c3cc4c(cc3OC)N(C=O)[C@H]3[C@@](O)(C(=O)OC)[C@H](OC(C)=O)[C@]5(CC)C=CCN6CC[C@]43[C@@H]65)C2)C1 [vincristine sulphate, vincristine sulfate]	1.88	30.1 ± 10.3	56.4 ± 17.5	fold difference in the GI50 values between FLCN-null and FLCN-wild type UOK257 cells (UOK257-FLCN^− cells): ~2 fold; change in growth inhibition for 786-0 cells with/without VHL expression (in words) [1]: no significant change; differential sensitivity in FTC-133 cells with different levels of FLCN expression (in words) [2]: no selective vincristine sensitivity
CO[C@@H]1C[C@](C)(O)Cc2cc3c(c(O)c21)C(=O)c1c(O)cc2c(c1C3=O)O[C@@H]1O[C@@]2(C)[C@H](O)[C@@H](N(C)C)[C@@H]1O [menogaril]	1.29	588 ± 57	757 ± 117	
COc1cccc2c1C(=O)c1c(O)c3c(c(O)c1C2=O)C[C@@](O)(C(=O)CO)C[C@@H]3O[C@H]1C[C@H](N2CCOCC2)[C@H](O)[C@H](C)O1 [morpholino-ADR, Morpholino-ADR]	0.97			GI50 (UOK257-FLCN^− cells): 0.45 ± 0.03 nM; GI50 (UOK257-FLCN^+ cells): 0.44 ± 0.1 nM
CC(=O)O[C@@H]1[C@@H](O)[C@H](O[C@H]2[C@H](OC(=O)[C@H]3CC[C@@H]4[C@H](C3)O[C@@]3(C[C@H](OC(=O)/C=C/c5ccccc5)[C@H](C)CO3)[C@]43CO3)O[C@H](C)[C@@H](O)[C@@H]2OC(C)=O)O[C@H](C)[C@H]1O [phyllanthoside]	2.15	199 ± 79		fold difference in the GI50 values between FLCN-null and FLCN-wild type UOK257 cells (UOK257-FLCN^− cells): ~2 fold; GI50 (UOK257-FLCN^+ cells; Homo sapiens, 72 h): 427 ± 97 nM
C(=N\NC1=NCCN1)/c1c2ccccc2c(/C=N/NC2=NCCN2)c2ccccc12 [bisantrene hydrochloride]	0.77	1750 ± 288	1340 ± 602	
CO[C@@H]1[C@H](O)C[C@@H](O[C@@H]2C[C@H](Oc3cc4cc5c(c(O)c4c(O)c3C)C(=O)[C@@H](O[C@H]3C[C@@H](O[C@H]4C[C@@H](O[C@H]6C[C@](C)(O)[C@@H](OC(C)=O)[C@H](C)O6)[C@H](O)[C@@H](C)O4)[C@H](O)[C@@H](C)O3)[C@H]([C@H](OC)C(=O)[C@@H](O)[C@@H](C)O)C5)O[C@H](C)[C@@H]2OC(C)=O)O[C@@H]1C [chromomycin A3]	0.88	37.4 ± 6.9		differential growth inhibitory activity in FLCN-deficient and FLCN-positive UOK-257 cell lines (in words) (UOK257-FLCN^− cells; listed as ChA3): did not find any differences; also recorded: does not demonstrate selective toxicity; also recorded: does not show differential growth inhibitory activity; GI50 (UOK257-FLCN^+ cells; Homo sapiens, 72 h): 33 ± 5.7 nM; differential toxicity to VHL-deficient relative to VHL-positive RCC cell lines (in words) ([3]; listed as ChA3): discriminate killing of VHL-deficient cells; differential toxicity to VHL-deficient relative to VHL-positive RCC cell lines (in words) ([3]; listed as Chromomycin A3 (ChA3)): differential toxicity
